The values below come from patent publication US10131653B2, “Heterocyclic compound” (TAKEDA PHARMACEUTICAL COMPANY LIMITED, priority 2015, dated 2018).

One data set has as its target T1, human OX1 receptor (Homo sapiens, UniProt O43613).
T1 construct: expressed in transfected cells; host or cells: CHO cells
T1 sequence (O43613 1-425): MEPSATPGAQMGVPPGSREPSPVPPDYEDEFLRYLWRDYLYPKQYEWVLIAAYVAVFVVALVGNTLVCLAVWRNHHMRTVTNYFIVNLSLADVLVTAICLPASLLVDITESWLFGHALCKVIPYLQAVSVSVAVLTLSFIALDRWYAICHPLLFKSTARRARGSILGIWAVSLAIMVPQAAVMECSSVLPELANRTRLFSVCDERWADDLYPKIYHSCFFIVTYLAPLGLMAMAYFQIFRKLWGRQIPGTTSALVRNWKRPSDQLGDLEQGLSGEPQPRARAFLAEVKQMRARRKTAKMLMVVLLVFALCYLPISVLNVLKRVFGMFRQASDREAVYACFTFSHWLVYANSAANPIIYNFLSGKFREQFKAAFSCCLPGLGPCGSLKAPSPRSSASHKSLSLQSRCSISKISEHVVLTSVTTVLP
In words: Measurement of orexin receptor antagonistic activity (calcium fluorescence, FLIPRtetra). Type of data set: cell-based. The note with it: CHO, read-out: Human Orexin1 receptor inhibition (at 10 μM). The gist of the method:
(§1)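 Calcium fluorescence measured by FLIPRtetra every second for 2 min after orexin-A challenge, 1 nM final for OX1 and 0.3 nM final for OX2. Receptor-expressing CHO cells received compound in HEPES-buffered HBSS with 0.1% BSA just before agonist.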

The next data set concerns the target T2, human OX2 receptor (Homo sapiens, UniProt O43614).
T2 construct: expressed in transfected cells; host or cells: CHO cells
T2 sequence (O43614 1-444): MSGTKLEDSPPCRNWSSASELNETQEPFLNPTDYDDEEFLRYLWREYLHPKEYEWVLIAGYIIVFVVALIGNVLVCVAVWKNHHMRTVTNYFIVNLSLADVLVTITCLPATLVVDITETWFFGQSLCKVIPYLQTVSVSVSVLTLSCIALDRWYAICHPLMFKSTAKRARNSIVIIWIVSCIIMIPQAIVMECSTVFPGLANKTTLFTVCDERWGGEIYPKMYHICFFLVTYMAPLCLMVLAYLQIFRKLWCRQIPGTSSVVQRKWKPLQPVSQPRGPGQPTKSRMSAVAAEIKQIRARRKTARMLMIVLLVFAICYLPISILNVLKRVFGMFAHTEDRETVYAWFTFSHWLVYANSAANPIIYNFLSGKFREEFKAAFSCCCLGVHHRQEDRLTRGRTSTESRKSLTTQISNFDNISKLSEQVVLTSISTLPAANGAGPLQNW
The data set is described as above. Type of data set: cell-based. The note with it: CHO, read-out: Human Orexin2 receptor inhibition (at 10 μM). In a few lines: as §1

The test system of another data set is Orexin-A-induced rats. As to the kind of experiment: Locomotor activity test using Orexin-A-induced rats. Type of data set: in vivo. The following applies: rat; for Locomotor activity increased by cerebral ventricular administration of Orexin-A: 30 mg/kg subcutaneous; for Locomotor activity (Counts/90 min): 30 mg/kg subcutaneous 30 min before Orexin-A (1 nmol) cerebral ventricular administration, mean. Here is the method:
The male SD rats described in Experimental Example 2 were used.
From the day before drug administration, the animals were acclimated to a locomotor activity measurement apparatus (Muromachi Kikai Co., Ltd.). Solvent (0.5% (w/v) methyl cellulose solution) and the compound (30 mg/kg) of Example 1 or the compound (30 mg/kg) of Example 2 were subcutaneously administered 30 min before administration of saline or Orexin-A (1 nmol). The locomotor activity was quantified for 30 min to 90 min after the cerebral ventricular administration of Orexin-A. A comparison with saline+solvent administration group was tested by Student's t-test (*p≤0.05). A comparison with Orexin-A+solvent administration group was tested by Dunnett's test (#p≤0.05).

A short description of data set [1]: Measurement of solubility. Format: physicochemical. The following applies: aqueous buffer, thermodynamic from solid; Britton-Robinson's Buffer pH 3, 37° C., shaking 2 hr; crystals from n-heptane suspension. Here is the method:
n-Heptane was added to the compounds of Examples 1, 2 and 102 at 40 mg/mL, respectively, and the mixtures were continued to be stirred at room temperature in a suspended state. After 3 to 7 days, the mixtures were filtered, and the obtained crystals as a sample were subjected to powder X-ray diffraction measurement (measurement condition: mentioned above) and solubility measurement.

Where [2] appears, read: 10 μM test compound, CHO cells expressing human OX1 receptor, OX-A 1 nM.
The mark [3] stands for this setting: 10 μM test compound, CHO cells expressing human OX2 receptor, OX-A 0.3 nM.

Where a name gives a salt, the structure may show the parent alone. Read-outs that look alike come from different tables or passages of the source.

As usually defined, the inhibition is the change of the read-out against control, counted positive when it falls. By solubility is commonly meant the dissolved amount per volume that the medium holds. A higher solubility goes with much dissolved substance. Turning to `Cc1cc(N2CCN(C(=O)c3ccccc3-n3nccn3)C[C@H](C)O2)nc(C)n1` [Example 2, ((7S)-2-(2,6-dimethylpyrimidin-4-yl)-7-methyl-1,2,5-oxadiazepan-5-yl)(2-(2H-1,2,3-triazol-2-yl)phenyl)methanone], on human OX1 receptor (setting [2]), the inhibition at 10 µM worked out at 68%. Also, the inhibition at 10 µM on human OX2 receptor (setting [3]) was 101%. For the same molecule, in the data set on Orexin-A-induced rats, the “Locomotor activity increased by cerebral ventricular administration of Orexin-A” value is “significantly decreased” and the “Locomotor activity (Counts/90 min)” value came to 2638 Counts/90 min. This molecule returned a solubility at 2 h in data set [1] of at least 5 mg/mL.
The matching figures for `Cc1cc(N2CCN(C(=O)c3cc(F)ccc3-n3nccn3)C[C@H](C)O2)nc(C)n1` [Example 1, ((7S)-2-(2,6-dimethylpyrimidin-4-yl)-7-methyl-1,2,5-oxadiazepan-5-yl)(5-fluoro-2-(2H-1,2,3-triazol-2-yl)phenyl)methanone]: 47%, 98%, “significantly decreased”, 3528 Counts/90 min and at least 5 mg/mL.
For `CCOc1ccccc1C(=O)N1CCON(c2nc(C)cc(C)n2)CC1` [Example 61, (2-(4,6-dimethylpyrimidin-2-yl)-1,2,5-oxadiazepan-5-yl) (2-ethoxyphenyl)methanone], the inhibition at 10 µM at human OX1 receptor (setting [2]) is 22%; at human OX2 receptor (setting [3]), 94%.
Consider `Cc1ccc(-c2ncccn2)c(C(=O)N2CCN(c3cc(C)nc(C)n3)O[C@@H](C)C2)c1` [Example 196, ((7S)-2-(2,6-dimethylpyrimidin-4-yl)-7-methyl-1,2,5-oxadiazepan-5-yl)(5-methyl-2-(pyrimidin-2-yl)phenyl)methanone], for which the inhibition at 10 µM on human OX1 receptor (setting [2]) is 89%; at human OX2 receptor (setting [3]) it was 100%.
As to `Cc1ccc(-n2nccn2)c(C(=O)N2CCN(c3cccc(C(F)(F)F)n3)OC[C@H]2C)c1` [Example 128, (5-methyl-2-(2H-1,2,3-triazol-2-yl)phenyl) ((6R)-6-methyl-2-(6-(trifluoromethyl)pyridin-2-yl)-1,2,5-oxadiazepan-5-yl)methanone], the inhibition at 10 µM is 99% on human OX1 receptor (setting [2]) and 96% on human OX2 receptor (setting [3]).
Regarding `Cc1cc(C)nc(N2CCN(C(=O)c3cccc4c3C(=O)N(C)C4)CCO2)n1` [Example 76, 7-((2-(4,6-dimethylpyrimidin-2-yl)-1,2,5-oxadiazepan-5-yl)carbonyl)-2-methylisoindolin-1-one], the inhibition at 10 µM is 6% on human OX1 receptor and 22% at human OX2 receptor.
Turning to `Cc1cc(C)nc(N2CCN(C(=O)c3ccccc3-n3nccn3)[C@H](C)CO2)n1` [Example 147, ((6R)-2-(4,6-dimethylpyrimidin-2-yl)-6-methyl-1,2,5-oxadiazepan-5-yl) (2-(2H-1,2,3-triazol-2-yl)phenyl)methanone], the inhibition at 10 µM amounted to 60% on human OX1 receptor (setting [2]) and 101% at human OX2 receptor (setting [3]).
For `Cc1cc(N2CCN(C(=O)c3cc(Br)ccc3-n3nccn3)CCO2)nc(C)n1` [Example 26, (5-bromo-2-(2H-1,2,3-triazol-2-yl)phenyl) (2-(2,6-dimethyl-pyrimidin-4-yl)-1,2,5-oxadiazepan-5-yl)methanone] the same measures were 83% and 100%.
For `CCc1ccnc(N2CCN(C(=O)c3ccccc3-n3nccn3)[C@H](C)CO2)n1` [Example 151, ((6R)-2-(4-ethylpyrimidin-2-yl)-6-methyl-1,2,5-oxadiazepan-5-yl) (2-(2H-1,2,3-triazol-2-yl)phenyl)methanone] the same measures were 81% and 98%.
For `Cc1cc(C)nc(N2CCN(C(=O)c3cc(F)ccc3-n3nccn3)[C@H](C)CO2)n1` [Example 161, ((6R)-2-(4,6-dimethylpyrimidin-2-yl)-6-methyl-1,2,5-oxadiazepan-5-yl)(5-fluoro-2-(2H-1,2,3-triazol-2-yl)phenyl)methanone hydrochloride], the figures for the inhibition at 10 µM at human OX1 receptor (setting [2]) and on human OX2 receptor (setting [3]) were 46% and 102%, respectively.
Regarding `Cc1ccc(-n2nccn2)c(C(=O)N2CCN(c3ccc(Cl)cn3)OC[C@H]2C)c1` [Example 121, ((6R)-2-(5-chloropyridin-2-yl)-6-methyl-1,2,5-oxadiazepan-5-yl) (5-methyl-2-(2H-1,2,3-triazol-2-yl)phenyl)methanone], the inhibition at 10 µM at human OX1 receptor (setting [2]) was 92%; at human OX2 receptor (setting [3]), 94%.
Consider `Cc1ccc(-n2nccn2)c(C(=O)N2CCN(c3cc(C(F)F)ccn3)OC[C@H]2C)c1` [Example 139, ((6R)-2-(4-(difluoromethyl)pyridin-2-yl)-6-methyl-1,2,5-oxadiazepan-5-yl) (5-methyl-2-(2H-1,2,3-triazol-2-yl)phenyl)methanone], for which the inhibition at 10 µM on human OX1 receptor was 54%; on human OX2 receptor, 98%.
Regarding `Cc1cc(C)nc(N2CCN(C(=O)c3cccc4c3OC(C)(C)C4)CCO2)n1` [Example 75, (2,2-dimethyl-2,3-dihydro-1-benzofuran-7-yl) (2-(4,6-dimethylpyrimidin-2-yl)-1,2,5-oxadiazepan-5-yl)methanone], the inhibition at 10 µM was found to be 10% on human OX1 receptor and 75% at human OX2 receptor.
As for `Cc1cc(C)nc(N2CCN(C(=O)c3ccccc3-c3ccccc3)CCO2)n1` [Example 79, biphenyl-2-yl (2-(4,6-dimethylpyrimidin-2-yl)-1,2,5-oxadiazepan-5-yl)methanone], the inhibition at 10 µM on human OX1 receptor (setting [2]) stood at 57%; on human OX2 receptor (setting [3]) it was 98%.
As for `Cc1nc(N2CCN(C(=O)c3ccccc3-c3nc(C)no3)C[C@H](C)O2)cc(C(F)(F)F)n1` [Example 111, ((7S)-7-methyl-2-(2-methyl-6-(trifluoromethyl)pyrimidin-4-yl)-1,2,5-oxadiazepan-5-yl)(2-(3-methyl-1,2,4-oxadiazol-5-yl)phenyl)methanone], the inhibition at 10 µM turned out to be 9% at human OX1 receptor (setting [2]) and 100% at human OX2 receptor (setting [3]).
Take `Cc1ccc(-n2nccn2)c(C(=O)N2CCN(c3ccc(F)cc3)OC[C@H]2C)c1` [Example 135, ((6R)-2-(4-fluorophenyl)-6-methyl-1,2,5-oxadiazepan-5-yl) (5-methyl-2-(2H-1,2,3-triazol-2-yl)phenyl)methanone]: the inhibition at 10 µM on human OX1 receptor was 15%; on human OX2 receptor, 88%.
Consider `COc1cccc(C(=O)N2CCON(c3nc(C)cc(C)n3)CC2)c1Cl` [Example 60, (2-chloro-3-methoxyphenyl) (2-(4,6-dimethylpyrimidin-2-yl)-1,2,5-oxadiazepan-5-yl)methanone], for which the inhibition at 10 µM at human OX1 receptor was -1%; at human OX2 receptor it was 3%.
For the molecule `Cc1ccnc(N2CCN(C(=O)c3cc(C)ccc3-n3nccn3)[C@H](C)CO2)c1` [Example 125, ((6R)-6-methyl-2-(4-methylpyridin-2-yl)-1,2,5-oxadiazepan-5-yl) (5-methyl-2-(2H-1,2,3-triazol-2-yl)phenyl)methanone], the results for the inhibition at 10 µM at human OX1 receptor (setting [2]) and on human OX2 receptor (setting [3]) were 68% and 98%, respectively.
With `Cc1cc(N2CCN(C(=O)c3cc(F)c(F)cc3-c3ncccn3)[C@H](C)CO2)nc(C)n1` [Example 231, (4,5-difluoro-2-(pyrimidin-2-yl)phenyl)((6R)-2-(2,6-dimethylpyrimidin-4-yl)-6-methyl-1,2,5-oxadiazepan-5-yl)methanone], the inhibition at 10 µM worked out at 38% on human OX1 receptor (setting [2]) and 103% at human OX2 receptor (setting [3]).
